The results in this text go back to patent US20100298221A1, “2-PHENOXY NICOTINE ACID DERIVATIVE AND USE THEREOF” (BAYER SCHERING PHARMA AKTIENGESELLSCHAFT, priority 2006, published 2010).

pEC50: −log10 of the molar value.

For this assay, the target named is T1, human PPARα-receptor (Homo sapiens, UniProt Q07869).
T1 construct: expressed in transfected cells; host or cells: CHO (chinese hamster ovary) cells, stably transfected
T1 sequence (Q07869 167-468): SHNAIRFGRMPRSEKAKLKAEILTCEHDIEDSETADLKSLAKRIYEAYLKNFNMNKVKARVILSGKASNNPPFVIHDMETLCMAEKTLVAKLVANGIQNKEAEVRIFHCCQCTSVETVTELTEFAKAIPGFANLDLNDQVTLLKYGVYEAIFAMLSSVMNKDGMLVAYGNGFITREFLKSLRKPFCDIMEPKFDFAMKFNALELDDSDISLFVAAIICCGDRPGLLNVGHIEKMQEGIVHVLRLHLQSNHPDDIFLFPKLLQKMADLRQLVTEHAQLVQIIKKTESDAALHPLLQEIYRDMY
Put plainly: Cellular transactivation assay (GAL4-PPARα chimera, luciferase reporter, CHO cells). In kind it is cell-based. The settings on record: CHO cells stably expressing GAL4-PPARα chimera and luciferase reporter; stimulation time 6 h. An excerpt:
A cellular assay is used to identify activators of the peroxisome proliferator-activated receptor alpha (PPAR-alpha).
Since mammalian cells contain different endogenous nuclear receptors which can complicate unambiguous interpretation of the results, an established chimera system is used, in which the ligand binding domain of the human PPARα-receptor is fused to the DNA binding domain of the yeast transcription factors GAL4. The GAL4-PPARα chimera thus formed is co-transfected and expressed stably in CHO cells with a reporter construct.
The GAL4-PPARα expression construct contains the ligand binding domain of PPARα (amino acids 167-468), which is PCR-amplified and cloned into the vector pcDNA3.1. This vector already contains the GAL4 DNA binding domain (amino acids 1-147) of the vector pFC2-dbd (Stratagene). The reporter construct, which contains five copies of the GAL4 binding site upstream of a thymidine kinase promoter, leads to the expression of firefly luciferase (Photinus pyralis) after activation and binding of GAL4-PPARα.
The day before the test, CHO (chinese hamster ovary) cells which stably express the above-described GAL4-PPARα chimera and luciferase reporter gene construct are plated out in 96-hole microtiter plates with 1×10^3 cells in medium (Optimem, GIBCO), 2% activated carbon-purified fetal calf serum (Hyclone), 1.35 mM sodium pyruvate (GIBCO), 0.2% sodium bicarbonate (GIBCO), and kept in a cell incubator (air humidity 96%, 5% v/v CO2, 37° C.). On the day of the test, the substances to be tested are taken up in abovementioned medium, but without addition of calf serum, and added to the cells. After a stimulation time of 6 h, the luciferase activity is measured with the aid of a video camera. The relative light units measured give a sigmoid stimulation curve as a function of the substance concentration. The EC50 values are calculated with the aid of the computer program GraphPad PRISM (Version 3.02).
In general, pEC50 refers to the negative decadic logarithm of the EC50, by convention in mol/L. A higher pEC50 goes with a low EC50. In turn, `Cc1cc(-c2ccc(C(=O)O)c(Oc3ccccc3Cl)n2)ccc1F` [Example 4, 2-(2-Chlorophenoxy)-6-(4-fluoro-3-methylphenyl)nicotinic acid] showed a pEC50 of 6.80.

In turn, `Cc1ccc(-c2ccc(C(=O)O)c(Oc3ccccc3Cl)n2)cc1F` [Example 5, 2-(2-Chlorophenoxy)-6-(3-fluoro-4-methylphenyl)nicotinic acid] gave a pEC50 of 7.48.

Turning to `Cc1ccc(-c2cc(C(F)(F)F)c(C(=O)O)c(Oc3ccccc3Cl)n2)cc1F` [Example 11, 2-(2-Chlorophenoxy)-6-(3-fluoro-4-methylphenyl)-4-(trifluoromethyl)nicotinic acid], the pEC50 is 7.85.

`O=C(O)c1ccc(-c2ccc(Cl)nc2)nc1Oc1ccccc1Cl` [Example 16, 6′-Chloro-6-(2-chlorophenoxy)-2,3′-bipyridine-5-carboxylic acid] gave a pEC50 of 6.06.

The molecule `N#Cc1ccc(Cl)c(Oc2nc(-c3cc(F)cc(F)c3)ccc2C(=O)O)c1` [Example 17, 2-(2-Chloro-5-cyanophenoxy)-6-(3,5-difluorophenyl)nicotinic acid] gave a pEC50 of 7.16.

`O=C(O)c1ccc(-c2cccc(F)c2F)nc1Oc1ccccc1OC(F)(F)F` [Example 26, 2-(2-Trifluoromethoxyphenoxy)-6-(2,3-difluorophenyl)nicotinic acid] gave a pEC50 of 7.12.

`Cc1ccc(-c2nc(Oc3ccccc3Cl)c(C(=O)O)cc2F)cc1F` [Example 36, 2-(2-Chlorophenoxy)-5-fluoro-6-(3-fluoro-4-methylphenyl)nicotinic acid]: the pEC50 was 7.47.

Consider `O=C(O)c1cc(F)c(-c2ccc(C(F)(F)F)cc2)nc1Oc1ccccc1Cl` [Example 38, 2-(2-Chlorophenoxy)-5-fluoro-6-(4-trifluoromethylphenyl)nicotinic acid], for which the pEC50 was 6.44.

`COc1cccc(-c2cc(C(F)(F)F)c(C(=O)O)c(Oc3ccccc3Cl)n2)c1F` [Example 42, 2-(2-Chlorophenoxy)-6-(2-fluoro-3-methoxyphenyl)-4-trifluoromethylnicotinic acid] had a pEC50 of 6.27.
